A short description of one series: In vivo pharmacokinetics. To be noted: rat. Further details: species or system rat (male Sprague Dawley). The method, then:
In vivo pharmacokinetics: RXC004 was dosed to male Sprague Dawley rats, male CD1 mice or dog (beagle) by intravenous and oral routes. Bioanalysis of blood and plasma samples was performed by LC/MS-MS using a Waters TQS or TQMS mass spectrometer. Pharmacokinetic information was derived using WinNonlin software (Certara).

A further series deals with MDR1-MDCKII cells. Nature of the series: Permeability in MDR1-MDCKII cells. The class given is in vitro ADME. The note with it: MDR1-MDCKII cells. The protocol: (§1) Permeability of RXC004 was assessed in MDR1-MDCKII (Netherlands Cancer Institute) and Caco-2 cells (Merck Life Sciences). RXC004 (10 μmol/L) was added to either apical or basolateral chamber for 2 hours at 37°C, then an aliquot from the opposite side of the monolayer was removed and quantified by LC/MS-MS. Apparent permeability (Papp) was calculated according to standard practice ([20]).

A further series has as its system MDR1. Kind of series: Permeability in MDR1-MDCKII cells. It counts as in vitro ADME. The note with it: dog, MDCK-MDR1, 10 μmol/L, 2 hours. The protocol: as §1
Series [1] concerns cells with upstream aberrations in Wnt pathway components. Nature of the series: Cell-cycle analysis by flow cytometry. It counts as cell-based, human. The note with it: 100 nmol/L, 3 days. The protocol: (§2) For concentration–response effects on gene expression, Single-Shot Cell Lysis kit (Bio-Rad #172-5080) was used for RNA extraction, data were normalized to DMSO-treated controls, and IC50 values determined. For cell-cycle analysis, the cancer cell line panel was treated with RXC004 (100 nmol/L) or DMSO (0.1%) for 3 days. Cell-cycle profiles were determined by staining with propidium iodide (Thermo Fisher Scientific #P3566) and phospho-Ser10-Histone-H3 (AlexaFluor-647, BioLegend #650806), and quantified using an Agilent Novocyte-3000 flow cytometer. For in vitro growth curve analysis, HPAF-II and SNU-1411 cells were seeded in 96-well plates at 2,000 cells/well and imaged on the IncuCyte (Sartorius) at 10× magnification with 4 fields of view per well. Total cell object count over time was calculated using the Adherent Cell-by-Cell analysis module.
On the technique in general: A flow cytometer gives signals particle by particle.

A short description of series [2]: pKa by fast UV (spectrometric) technique. It counts as physicochemical. To be noted: 25°C; for pKa: methanol-water mixture. The protocol: pKas were determined using the fast UV (spectrometric) technique. Samples were titrated under methanol-water mixture between pH2.0 and pH12.0 at 30–15 μmol/L at 25°C. The ionic strength was 0.192 mol/L (KCl). Aqueous pKas were determined per Yasuda-Shedlovsky ([17]).

The nature of series [3]: Permeability in Caco-2 cells. It counts as in vitro ADME. The note with it: human. The protocol:
as §1

Series [4] concerns cell lines with mutations in downstream Wnt signaling. Kind of series: Proliferation, 5 days, ATPLite. It counts as cell-based, human. The note with it: concentration-series. The method, then:
(§3) Cells were treated with a concentration-series of RXC004 for 5 days and proliferation measured using ATPLite 1-Step Reagent (Perkin Elmer #6016731). Data were normalized to DMSO-treated controls and IC50 values determined. Colorectal cell lines used were: WiDR (APC-E853*/T1556fs*3), HCT116 (β-cateninΔSer45; RNF43-R117fs*41), JVE-109 (RNF43-V211fs*47/G659fs*41), SNU-1411 (PRPTK-RSPO-3 fusion). Pancreatic cell lines were: CAPAN-2 (RNF43-R330fs*89), AsPC1 (RNF43-S720*), and HPAF-II (RNF43-E174*). Cell lines were from ATCC, except for SNU-1411 (Korean Cell Line Bank) and cultured for no more than 20 passages. Cells were routinely tested for Mycoplasma by the MycoAlert test (Lonza) and authenticated using short tandem repeat fingerprinting.

For series [5], the system named is cell lines with RNF43 mutations and RSPO3 fusions. Kind of series: Proliferation, 5 days, ATPLite. The class given is cell-based, human. To be noted: concentration-series. The method, then: as §3
For orientation: In ATP-based viability assays light output follows the ATP content of the culture.

A further series deals with HCT116 cells. Nature of the series: Wnt-responsive gene expression (qPCR). It counts as cell-based, human.
Source text: (§4) The expression of nine potential Wnt-responsive genes was screened across cell lines by treatment with RXC004 (10 nmol/L) or DMSO (0.1%) for 3 days. RNA was extracted (Aurum RNA isolation kit, Bio-Rad #372-6820) and gene expression assessed by Taqman qPCR relative to appropriate housekeeping genes on the Bio-Rad CFX real-time system.
as §2
Background: Real-time PCR tracks product formation cycle by cycle.

A further series has as its system WiDR cells. Nature of the series: Wnt-responsive gene expression (qPCR). It counts as cell-based, human.
Source text: as §4, §2

Setting [6] is: male, Sprague Dawley, in vivo, po, 5 mg/kg p.o.

By AUC(0-inf) is commonly meant total exposure, with the tail of the curve extrapolated. Read a low AUC(0-inf) as low exposure. By Cmax is commonly meant the peak of the concentration-time curve. Usually pKa stands for the pH at which an ionisable group is half protonated. Usually IC50 stands for the concentration needed to halve the response being measured.

Each structure is given as a SMILES string. Where two headings read alike, the source gives them in different places.

As for `Cc1c(-c2ccnc(C(F)(F)F)c2)ncn1CC(=O)Nc1ccc(-c2cnccn2)cn1` [RXC004, 2-[5-methyl-4-[2-(trifluoromethyl)-4-pyridyl]imidazol-1-yl]-N-(5-pyrazin-2-yl-2-pyridyl)acetamide], the clearance in “In vivo pharmacokinetics” (male, Sprague Dawley, in vivo, intravenous, 2 mg/kg, dose i.v./p.o. 2/5 mg/kg) stood at 5.8 mL/min/kg. For the same compound, in the series “In vivo pharmacokinetics” (male, Sprague Dawley, in vivo, intravenous, 2 mg/kg, dose i.v./p.o. 2/5 mg/kg, read-out: Vss), the Vd turned out to be 0.64 L/kg. The AUC(0-inf) in “In vivo pharmacokinetics” (setting [6]) amounted to 10.5 µM·h. The compound also returned a Cmax in the series “In vivo pharmacokinetics” (setting [6]) of 3600 nM. Moreover, the concentration at 24 h in the series “In vivo pharmacokinetics” (male, Sprague Dawley, in vivo, po, 5 mg/kg p.o., read-out: C24h (p.o.)) was 9 nM. Moreover, in the series “In vivo pharmacokinetics” (male, Sprague Dawley, in vivo, dose i.v./p.o. 2/5 mg/kg, read-out: T½ (converted)), the half-life is 2.5 h. Besides, in “In vivo pharmacokinetics” (dose i.v./p.o. 2/5 mg/kg), the “F (p.o.)” value was found to be 31%. The efflux entry with MDR1-MDCKII cells was “some evidence of efflux in MDR1-MDCKII cells”. Moreover, the Papp A→B at 2 h, 10 μmol/L in the series with MDR1 (apical to basolateral, read-out: MDCK PappA-B) was 15 ×10⁻⁶ cm/s; in [3] (apical to basolateral, read-out: Caco-2 PappA-B) it was 23.6 ×10⁻⁶ cm/s. Further, the Papp B→A at 2 h, 10 μmol/L was 51.9 ×10⁻⁶ cm/s with MDR1 (basolateral to apical, read-out: MDCK PappB-A) and 21.8 ×10⁻⁶ cm/s in series [3] (basolateral to apical, read-out: Caco-2 PappB-A). Moreover, the “expression of mitosis marker phospho-histone-H3” value in [1] is listed as “strongly inhibited expression of the mitosis marker phospho-histone-H3”. Besides, the “proportion of cells in S-phase” value in series [1] is reported as “reduced the proportion of cells in S-phase”. Further, the “pKa (most basic)” value in series [2] is reported as 3.84. For the same compound, the pKa in [2] (read-out: pKa (most acidic)) was 11.2; in series [2] (read-out: pKa (most basic)), 3.8. For the same compound, the proliferation result in [4] was “had no effect”; in series [5], “inhibited proliferation”. Also, the “Wnt pathway target expression” value in the series with HCT116 cells (HCT116, 10 nmol/L, 3 days) is “Minimal effects”; with WiDR cells (WiDR, 10 nmol/L, 3 days), “Minimal effects”. Further, the IC50 was greater than 10 µM with HCT116 cells (Homo sapiens, HCT-116, HCT116, read-out: IC50, c-Myc mRNA expression) and greater than 10 µM with WiDR cells (Homo sapiens, WiDr, read-out: IC50, c-Myc mRNA expression).

(Values after publication PMC10010340, “The Wnt Pathway Inhibitor RXC004 Blocks Tumor Growth and Reverses Immune Evasion in Wnt Ligand–dependent Cancer Models” (Cancer Research Communications, 2022).)
